Laboratory results as given in US10113150B2, “Engineered cardiac tissues and methods of using them” (InvivoSciences, Inc., priority 2011, dated 2018).

Legend:
[1] = system: engineered heart tissues (EHTs); assay: EHT contractility assay (cardiac twitch force, Palpator)
Excerpt: EHTs were fabricated with 1.75-2×10^6 cardiomyocytes/mL using MC-8™ system (InvivoSciences, LLC). The cardiomyocytes were obtained from neonatal rats and guinea pigs, or embryonic mice or chicken. Viable and spontaneously twitching EHTs were generally obtained by day 10 after fabrication. The EHTs were electrically stimulated (60 mV, 1 Hz) during mechanical testing. The mechanical properties of EHTs using the Palpator™ device (InvivoSciences, LLC). This automated device positions a force probe directly above the center of each well (FIG. 7A-i) and moves it vertically in two (or more) steps (FIG. 7A-ii, -iii) to stretch twice the EHT to 3.7% and 7.7% longitudinally. Cardiac twitch (systolic) force and resting (diastolic) force were measured during each step for 30 and 60 s. […] The peak rate at which the cardiac twitch force changes (FIG. 7C) also indicated the contractility (FIG. 7D) of the EHT much like the dP/dtmax of left ventricles measured by pressure catheters.
To validate the ability of our assay system to assess cardiotoxicity, we profiled the effects of anti-cancer agents (doxorubicin and daunorubicin) and beta-adrenoceptor agonist (isoproterenol), which are known to cause cardiotoxicity in clinical and experimental applications. […] After a 3-day incubation with doxorubicin (20 nM, 200 nM, or 1 μM) the EHTs were measured again and their viability was determined.

[2] = system: mitochondrial membrane potential of EHTs; assay: Mitochondrial membrane potential (MMP) of EHTs by TMRE fluorescence; assay type: cell-based, rat
Excerpt: The bottoms of the 8-well chambers were sealed with glass coverslips so that EHT cells could be observed using various optical instruments including microscopes and fluorescence plate readers in real time or after fixations. […] Mitochondria produce ATP via the electrochemical/osmotic gradient (˜180 mV) generated and maintained by the electron transport chain. Therefore, highly charged mitochondria produce ATP to support cardiac contractions.
Using a fluorescence plate reader (Synergy™ HT, BioTek U.S., Winooski, V T), we simultaneously measured TMRE's fluorescent signal (543 nm excitation/605±16 nm emission) and EHT contractions to determine the coupling between MMP and cardiac contractility. After a short (15-min) administration of 900 μM DNP (2,4-dinitrophenol), a potent uncoupler of MMP (FIG. 7F), to the EHTs MMP was reduced and cardiac contraction stopped (FIG. 7E).
Drug-induced cardiotoxicity often damages mitochondrial metabolic activity. We have developed additional assays for quantifying the mitochondrial membrane potential (MMP) of EHTs using the cationic potential metric dye tetramethylrhodamine ethyl ester (TMRE), and we are also assessing EHT viability using 3-(4,5-Dimethylthiazol-2-yl)-2,5-diphenyltetrazolium (MTT). An automated microplate reader was used to measure fluorescence or optical absorbance of these dyes. With these assays, we successfully screened for a small molecule that modulates cellular and tissue contractility without altering MMP and viability of cells (details in Lam, V. and T. Wakatsuki, Hydrogel Tissue Construct-Based High-Content Compound Screening. Journal of Biomolecular Screening, 2011. 16(1): p. 120-128.). Four test compounds were assayed: Rho kinase inhibitor (H1152), cytochalasin D (CD), 2,4-dinitrophenol (DNP), and rotenone (ROT). […] Assays to assess mitochondrial activity and metabolic parameters such as ATP concentrations, O2 consumption and free radical production have been measured using similar techniques, see e.g. Lam, V. and T. Wakatsuki, Hydrogel Tissue Construct-Based High-Content Compound Screening. […]

[3] = system: cardiac fibroblasts / myofibroblasts (mFBs) in EHTs; assay: Elimination of puromycin-sensitive fibroblasts in EHTs; assay type: cell-based, human; design: effect on mFBs: dose or concentration left out as unconfirmed
Excerpt: We fabricated EHTs using CMs derived from mouse ES cells (Cor.AT, Axiogenesis) that express a puromycin resistance-GFP reporter gene fusion driven by a cardiac-specific (αMHC) promoter. These Cor.AT CMs (1.75×10^6) were co-cultured with cardiac fibroblasts (FBs) in a 1:1 ratio (See Asnes, C. F., et al., Reconstitution of the Frank-Starling mechanism in engineered heart tissues. Biophys J, 2006. 91(5): p. 1800-10) for developing a coherently contracting EHT. The EHTs were compressed by the FBs from a loose (6×6×3.5 mm^3) hydrogel into a compacted (˜3×2×0.5 mm^3) coherently contracting tissue in 5-7 days. […] The remodeling capacity of FBs was needed to fabricate compressed 3D tissues that can generate cardiac contraction synchronously. Upon achieving synchronous contraction, the cardiac twitch force was measured using the Palpator. […] We expected that application of a similar protocol to fabricate EHTs with iPSC-derived CMs should produce similar cardiac contractility since individual CMs derived from human ES cells, iPSCs, and native rat hearts produced equivalent degrees of cardiac contractility. Our results showing similar results for human ES cells is below.
An increasing density of cardiomyocytes (CMs) in the EHT constructs promoted intercellular contacts to form a synchronously contracting EHT while myofibroblasts (mFBs) remodeled and compressed the constructs. However, an overgrowth of mFBs limited survival of CMs. By regulating the mFB proliferation, cardiac contractility of EHTs without mFBs was maintained at least 10-50% longer than those with mFBs. […] The Cor.AT CMs (1.75×10^6) were co-cultured with mFBs in a 5:1 ratio using previously published method and developed a coherently beating EHT. The EHTs with mFBs were compressed from a loose (6×6×3.5 mm^3) hydrogel into a compacted (˜3×2×0.5 mm^3) tissue in 5-7 days (FIG. 15B). Varying numbers of mFBs were mixed with CMs (e.g., 0.1:1, 0.5:1 up to 1:1) to fabricate EHTs. […]

[4] = 900 μM, short (15-min) administration to EHTs

| SMILES | cardiac twitch force ([1]; 450 μM) | cardiac contraction [1, 4] | twitch force ([1]; increasing concentrations, FIG. 7E) | MMP (mitochondrial membrane potential) ([2]; 450 μM) | MMP (mitochondrial membrane potential) [2, 4] | EC50 ([2]; rat EHT, FIG. 14, read-out: EC50 of MMP dissipation) [µM] | effect on mFBs [3] | effect on puromycin sensitive FBs ([3]; 5 μM, after compaction, EHTs with Cor.AT CMs) | effect on mFB in the EHTs ([3]; 10 μM, Cor.AT myocytes with human cardiac myofibroblasts) |
| --- | --- | --- | --- | --- | --- | --- | --- | --- | --- |
| O=[N+]([O-])c1ccc(O)c([N+](=O)[O-])c1 [DNP, 2,4-dinitrophenol] | not reduced significantly | stopped | reduced | attenuated | reduced | 340 |  |  |  |
| COc1ccc(C[C@H](N)C(=O)N[C@H]2[C@@H](O)[C@H](n3cnc4c(N(C)C)ncnc43)O[C@@H]2CO)cc1 [puromycin] |  |  |  |  |  |  | eliminated | eliminated or their viability reduced | eliminated |
